Assay: Ex vivo cleavage kinetics of MDTG in mouse whole blood
Type: in vitro ADME
Conditions: after 60 min
Protocol: A lipophilic and hydrophobic modified DTG prodrug (called MDTG) was synthesized through myristoylation of the parent drug hydroxyl group. Initially, DTG was dried by co-evaporation from anhydrous pyridine then resuspended in anhydrous DMF and cooled to 0 °C under argon. 2-equivalents DIEA were used to deprotonate the 7-hydroxyl group of DTG, which was then immediately reacted with 2 equivalents myristoyl chloride for 24 h. The resultant product was purified by silica gel column chromatography using an initial mobile phase of 4:1 ethyl acetate: hexanes for 12 fractions, then 9:1 ethyl acetate: hexanes for the remainder. Once purified, fractions containing the UV active prodrug were dried and precipitated from diethyl ether. The precipitate was collected by centrifugation at 3500 r.p.m. for 15 min and dried under vacuum, while the supernatant was discarded. MDTG was synthesized at a final drug yield of 82.8%. Proton nuclear magnetic resonance (^1H NMR), carbon nuclear magnetic resonance (^13C NMR), and Fourier-transform infrared (FTIR) spectroscopy, positive electrospray ionization mass spectroscopy (ESI-MS), and powder X-ray diffraction (XRD) were used to characterize the structure of MDTG. […] ESI-MS specifics (m/z): calculated for C34H45F2N3O6, 629.33 (100%), 630.33 (36.8%), 631.33 (3.9%); found, 630.30. […] The aqueous solubility of DTG and MDTG was evaluated by adding excess drug to water at room temperature then mixing it overnight. […] Solubilized drug in the supernatant was extracted in methanol and measured using a Waters ACQUITY ultra performance liquid chromatography (UPLC) H-Class System with TUV detector and Empower 3 software (Milford, MA). For DTG and MDTG quantitation, drug extracts were separated on a Phenomenex Kinetex 5 μm C18 column (150 × 4.6 mm) (Torrance, CA) using either 65% 50 mM KH2PO4, pH 3.2/35% ACN (DTG) or 90% ACN/10% water (MDTG) with a flow rate of 1.0 mL/min and detected at 254 nm and 230 nm, respectively. Drug content was quantitated by comparison of peak area to those of known standards (0.05–50 µg/mL). Ex vivo cleavage kinetics of MDTG was assessed in mouse whole blood. […]

SMILES: CCCCCCCCCCCCCC(=O)Oc1c2n(cc(C(=O)NCc3ccc(F)cc3F)c1=O)C[C@@H]1OCC[C@@H](C)N1C2=O [MDTG]
- MDTG cleaved (after acetonitrile (ACN) addition): 21.9%
- MDTG hydrolyzed (blood diluted ten-fold): 88.7%
- MDTG hydrolyzed (blood spiked with an esterase inhibitor): 15.2%
- MDTG cleaved (whole blood, room temperature): 79.9%
